Columns and labels:
Plasmodium falciparum [1] = experiment: NOVARTIS: Inhibition of Plasmodium falciparum 3D7 (drug-susceptible) proliferation in erythrocyte-based infection assay; assay type: functional, organism-based; settings: Plasmodium falciparum, 3D7
Plasmodium falciparum [2] = experiment: NOVARTIS: Inhibition of Plasmodium falciparum W2 (drug-resistant) proliferation in erythrocyte-based infection assay; assay type: functional, organism-based
[3] = NOVARTIS: Cytotoxicity against human hepatocellular carcinoma cell line (Huh7); assay type: toxicity, cell-based, Huh-7; settings: Huh7 cells (hepatocellular carcinoma cell line)
[4] = Plasmodium falciparum, W2, read-out: EC50

Row | SMILES | EC50 (Plasmodium falciparum [1]) | EC50 (Plasmodium falciparum [2]; [4]) | CC50 [3] | EC50 (Plasmodium falciparum [2])
1 | CCNC(=O)/C=C/c1ccc(C(C)(C)C)cc1 | > 1100 nM | 441 nM | > 10000 nM | –
2 | O=C(CSc1nc2ccccc2[nH]1)Nc1ccc(Cl)cc1Cl | > 790 nM | > 1250 nM | > 10000 nM | –
3 | COc1ccc(Cl)cc1NC(=O)C1c2ccccc2C(=O)N(CC(C)C)C1c1cccs1 (centres undefined) | 837 nM | 272 nM | > 100000 nM | –
4 | Nc1nnc(SCC(=O)Nc2nnc(SCC(=O)Nc3nccs3)s2)s1 | > 1250 nM | > 738 nM | > 10000 nM | –
5 | O=C1c2ccccc2-c2nc3c(Cl)cc(C(F)(F)F)cc3nc21 | 1040 nM | 747 nM | > 10000 nM | –
6 | CCOC(=O)C1=C(N)N(c2cccc([N+](=O)[O-])c2)C2=C(C(=O)CC(C)(C)C2)C1c1ccc(Cl)cc1 (centres undefined) | 6140 nM | 5550 nM | > 100000 nM | –
7 | CN1CCC(CCNCc2ccc(OCC(O)CN(C)Cc3ccccc3)cc2)CC1 (centres undefined) | 1110 nM | 1080 nM | 68600 nM | –
8 | Cc1ccc2[nH]c(/C(C#N)=C/c3cn(Cc4ccc(Cl)cc4Cl)nc3-c3ccccc3)nc2c1 | > 1010 nM | 1880 nM | > 10000 nM | –
9 | O=C1N(c2ccccc2)C[C@@H]2C[C@@H](c3ccc(C#CCCO)cc3)N3CCC[C@@]123 | 832 nM | 757 nM | 16800 nM | –
10 | Cc1ccc(C(CCNc2ncnc3c2[nH]c2ccccc23)c2ccco2)cc1 (centres undefined) | 736 nM | 524 nM | 19400 nM | –
11 | Clc1ccc(Nc2nc3nonc3nc2Nc2ccc(Cl)c(Cl)c2)cc1Cl | > 12500 nM | 9280 nM | 48700 nM | –
12 | C=C[C@H]1CN2CC[C@H]1C[C@@H]2[C@@H](OC(=O)c1ccco1)c1ccnc2ccccc12 | 149 nM | 104 nM | > 10000 nM | –
13 | CC(C)CC1C(c2ccc(Cl)cc2)C(C(=O)c2ccccc2)C2(C(=O)Nc3ccc(Br)cc32)N1C(=O)NCc1ccccc1 (centres undefined) | 775 nM | > 1020 nM | > 10000 nM | –
14 | CN1CCCC1CCNc1ncc(C(=O)NCc2ccccc2)c(NCC2CCCCC2)n1 (centres undefined) | 54.4 nM | 100 nM | > 10000 nM | –
15 | CC(=O)N1c2ccc(C)cc2C(C)(c2ccccc2)CC1(C)C (centres undefined) | 776 nM | 674 nM | 45400 nM | –
16 | COc1cc(-c2nc(-c3ccccc3)c(-c3cccc(C(F)(F)F)c3)[nH]2)cc(OC)c1O | 622 nM | 902 nM | 44900 nM | –
17 | O=C(Nc1ccc(Cl)c(Cl)c1)Nc1ccc(Cl)c(Cl)c1 | 1030 nM | 460 nM | 20200 nM | –
18 | COc1ccc(C=NNc2nc3ccccc3[nH]2)cc1OC | 243 nM | 128 nM | 36500 nM | –
19 | COc1ccc(N2C(N)=NC(N)=NC23CCCC3)cc1 | 393 nM | 6350 nM | > 100000 nM | –
20 | CN(C)CCN1CCN(c2cncc(-c3cccnc3)n2)CC1 | > 1110 nM | > 1250 nM | > 10000 nM | –
21 | Cc1cnc(NC(=O)Nc2ccc(-c3ccc(NC(=O)Nc4ncc(C)s4)c(C)c3)cc2C)s1 | 34.1 nM | 76.7 nM | > 10000 nM | –
22 | CCn1c(SCC(=O)Nc2cccc(C)c2)nnc1-c1ccccc1 | > 1250 nM | 26.7 nM | > 10000 nM | –
23 | CCCN(CCC)CCCNc1ccc(C(=O)Nc2cccc(OC)c2)cc1[N+](=O)[O-] | 159 nM | 320 nM | 24000 nM | –

Row | SMILES | EC50 (Plasmodium falciparum [1]) | EC50 (Plasmodium falciparum [2]; [4]) | CC50 [3] | EC50 (Plasmodium falciparum [2])
24 | Cc1ccc2nc(-c3ccccc3)cc(C(=O)Nc3ccc(Cl)c(Cl)c3)c2c1 | > 1250 nM | 1700 nM | > 10000 nM | –
25 | CCOc1cc(C=NN=C(N)N)ccc1OCc1ccccc1 | 235 nM | 321 nM | 10100 nM | –
26 | FC(F)(F)c1cccc(Nc2nc3nonc3nc2Nc2ccc(Cl)cc2)c1 | > 1310 nM | 1610 nM | > 10000 nM | –
27 | c1ccc2c(c1)[nH]c1ccc3ccncc3c12 | 85.3 nM | 24.2 nM | > 10000 nM | –
28 | CC(C)(C)OC(=O)NCC(=O)Oc1cc2oc(=O)cc(-c3ccccc3)c2cc1Cl | > 1250 nM | > 755 nM | > 10000 nM | –
29 | Cc1oc2c(c1C(=O)NC1CCS(=O)(=O)C1)C(=O)c1ccccc1C2=O (centres undefined) | 437 nM | 127 nM | 2400 nM | –
30 | CCOc1ccc2[nH]c3c(NCCCN4CCOCC4)ncnc3c2c1 | 749 nM | 267 nM | 36400 nM | –
31 | O=C(O)c1cc([N+](=O)[O-])ccc1Oc1cncc(Cl)c1 | 33.3 nM | > 1250 nM | > 10000 nM | –
32 | Cc1ccc(-n2c(-c3ccccc3)cc(C=NNC(=O)c3cccc(-n4c(C)ccc4C)c3)c2-c2ccccc2)cc1 | 867 nM | 684 nM | > 100000 nM | –
33 | NCCCNc1ncc(C(=O)NCc2ccccc2)c(NCC2CCCCC2)n1 | 91.2 nM | 799 nM | 5140 nM | –
34 | N[C@@H](COP(=O)(O)O)C(=O)O [DEXFOSFOSERINE] | 1080 nM | > 1060 nM | > 10000 nM | –
35 | COc1cccc(C2CC3(CC(C)(C)NC(=S)N3)Oc3cc(OC(C)=O)c(Cl)cc32)c1 (centres undefined) | > 1300 nM | > 995 nM | > 10000 nM | –
36 | COc1cccc(-c2ccc(O)c(CN3CCCC(C)C3)c2)n1 (centres undefined) | 543 nM | 67.9 nM | > 10000 nM | –
37 | COc1cc(Br)c(CCNC(=O)Cc2cc(OC)c(OC)cc2Br)cc1OC | > 8770 nM | > 8680 nM | > 100000 nM | –
38 | O=S(=O)(NC1CCCC1)c1cccc2nonc12 | > 1600 nM | > 982 nM | > 10000 nM | –
39 | Cc1ccc(-c2c3c(nc4sc(C(=O)Nc5cccc(C)c5)c(N)c24)CCC3)cc1 | 1010 nM | 82.7 nM | > 100000 nM | –
40 | c1ccc(-c2csc(Nc3nc4cc5c(cc4s3)OCO5)n2)nc1 | 650 nM | 417 nM | > 100000 nM | –
41 | C=CCn1c(SCC(=O)c2cc(C)n(-c3ccccc3F)c2C)nc2sc3c(c2c1=O)CCCC3 | > 1250 nM | > 180 nM | > 10000 nM | –
42 | CCOC(=O)c1c(NC(=O)c2ccc([N+](=O)[O-])cc2[N+](=O)[O-])sc2c1CCCC2 | > 12500 nM | 1040 nM | > 100000 nM | –
43 | NC(=NCc1ccccc1)NC(=O)c1nc(Cl)c(N)nc1N | 1160 nM | > 1250 nM | > 6250 nM | –
44 | Cc1ccc(C2CC(=O)N3CN(c4ccc(Br)cc4)CSC3=C2C#N)o1 (centres undefined) | > 12500 nM | 1350 nM | > 100000 nM | –
45 | COc1ccc(C2NCCc3c2[nH]c2ccccc32)cc1CSc1nc2ccccc2[nH]1 (centres undefined) | 1750 nM | 2590 nM | 20400 nM | –
46 | CCCSc1nc(N)c(NC(=O)c2ccco2)c(=O)[nH]1 | > 361 nM | > 1020 nM | > 10000 nM | –

Row | SMILES | EC50 (Plasmodium falciparum [1]) | EC50 (Plasmodium falciparum [2]; [4]) | CC50 [3] | EC50 (Plasmodium falciparum [2])
47 | COc1ccc(OCC(=O)Nc2cccc(-c3nc4ncccc4o3)c2)cc1 | 1470 nM | 935 nM | > 100000 nM | –
48 | COC(=O)[C@]1(C)CC[C@]2(C)CC[C@]3(C)C4=CC=C5C(=CC(=O)C(O)=C5C)[C@]4(C)CC[C@@]3(C)[C@@H]2C1 [PRISTIMERIN] | > 1250 nM | > 820 nM | > 6250 nM | –
49 | O=C(c1ccccc1)C1NC1c1ccc(Br)cc1 (centres undefined) | 989 nM | 1120 nM | > 100000 nM | –
50 | CN(C)c1ccc(-c2nc(-c3ccc(-c4[nH]c(-c5ccc(N(C)C)cc5)nc4-c4ccccc4)cc3)c(-c3ccccc3)[nH]2)cc1 | 7820 nM | 2910 nM | 68400 nM | –
51 | FC(F)(F)c1cccc(NC(=S)N2CCCC2c2ccncc2)c1 (centres undefined) | 327 nM | 370 nM | > 10000 nM | –
52 | COc1ccc(C2C(C(=O)Nc3cccc(OC)c3)c3ccccc3C(=O)N2C2CCCCC2)cc1 (centres undefined) | 1110 nM | 332 nM | > 100000 nM | –
53 | CCCN1CCC(NC(c2ccccc2)c2ccc(Cl)cc2)CC1 (centres undefined) | 753 nM | 51.9 nM | 20200 nM | –
54 | Cc1ccc(-c2cn3c([n+]2-c2ccccc2)SCC3)cc1 | 427 nM | 309 nM | > 100000 nM | –
55 | CCOC(=O)C1=C(C)NC2=C(C(=O)C(C(=O)OCC)C(c3ccccc3OC)C2)C1c1cc(OC)c(OC)c(OC)c1 (centres undefined) | 1500 nM | 713 nM | > 100000 nM | –
56 | COC(=O)[C@@H]1C[C@@H](NC(=O)c2ccc(OC)cc2OC)CN1CC(c1ccccc1)c1ccccc1 | 590 nM | 1190 nM | > 10000 nM | –
57 | COc1ccc(/C=C/C(=O)Nc2ccncc2)cc1OC | 593 nM | 828 nM | > 10000 nM | –
58 | CCN(CC)C(=O)COc1ccc(-c2nnc(N3CCCCC3)c3ccccc23)cc1 | 1740 nM | 508 nM | > 100000 nM | –
59 | O=C(NCc1ccccc1)c1cnc(NCCCn2ccnc2)nc1NCC1CCCCC1 | 311 nM | 1040 nM | > 10000 nM | –
60 | CN(CCCNc1ccnc2cc(Cl)ccc12)C(=O)C(C)(C)CCl | 94.9 nM | 192 nM | > 10000 nM | –
61 | CCOc1ccc(N(C(=O)C2COc3ccccc3O2)C(C(=O)NC2CCCCC2)c2cn(C)nc2C)cc1 (centres undefined) | 443 nM | 614 nM | > 100000 nM | –
62 | O=C(CCNS(=O)(=O)c1ccc(Br)s1)N1CCc2ccccc2C1 | > 5600 nM | > 12500 nM | > 100000 nM | –
63 | COc1ccc(OC)c(C2C3=C(CC(C)(C)CC3=O)N(c3ccc(Cl)c(Cl)c3)C3=C2C(=O)CC(C)(C)C3)c1 | 430 nM | 546 nM | > 100000 nM | –
64 | CCN(C(C)=O)C1=C(N2CCOCC2)C(=O)c2ccccc2C1=O | 168 nM | 185 nM | 4090 nM | –
65 | CCN(Cc1ccccc1)c1ncnc2ccc(Br)cc12 | 7440 nM | > 12500 nM | 95300 nM | –
66 | CCc1c(C#N)c(N)nc(SCC(=O)c2ccc(C)cc2)c1C#N | 1200 nM | – | > 100000 nM | No fit
67 | C=C(C)[C@@H]1CC=C(CN2C[C@H](NC(=O)c3ccc(OC)cc3OC)C[C@H]2C(=O)OC)CC1 | 815 nM | 409 nM | > 10000 nM | –
68 | CC(NS(=O)(=O)c1ccccc1)C(=O)NC1CCCC1 (centres undefined) | > 4320 nM | 4620 nM | > 100000 nM | –

From ChEMBL document CHEMBL1156829 (Proc Natl Acad Sci U S A, 2008)
